Experiment [1] deals with Corn Earworm (CEW) (Helicoverpa zea). Put plainly: Bioassay on corn earworm (CEW), 128-well diet tray assay. Format: in vivo. As to conditions: Helicoverpa zea; Corn earworm, 50 μg/cm^2; read-out: % Mortality CEW 50 μg/cm^2. How it is done:
(§1) Bioassays on Beet Armyworm (“BAW”) and Corn Earworm (“CEW”)
(§2) Certain molecules disclosed in this document were tested against BAW and CEW using procedures described in the following examples. In the reporting of the results, the “BAW & CEW Rating Table” was used (See Table Section).
Bioassays on CEW (Helicoverpa zea)
Bioassays on CEW were conducted using a 128-well diet tray assay. One to five second instar CEW larvae were placed in each well (3 mL) of the diet tray that had been previously filled with 1 mL of artificial diet to which 50 μg/cm^2 of the test compound (dissolved in 50 μL of 90:10 acetone-water mixture) had been applied (to each of eight wells) and then allowed to dry. Trays were covered with a clear self-adhesive cover and held at 25° C., 14:10 light-dark for five to seven days. Percent mortality was recorded for the larvae in each well; activity in the eight wells was then averaged. The results are indicated in the table entitled “Table 5: Biological Results” (See Table Section).

The test system of experiment [2] is Beet Armyworm (BAW) (Spodoptera exigua). As to the kind of experiment: Bioassay on beet armyworm (BAW), 128-well diet tray assay. Format: in vivo. The conditions noted are these: Spodoptera exigua; Beet armyworm, 50 μg/cm^2; read-out: % Mortality BAW 50 μg/cm^2. How it is done: as §1, §2
Bioassays on BAW (Spodoptera exigua)
Bioassays on BAW were conducted using a 128-well diet tray assay. One to five second instar BAW larvae were placed in each well (3 mL) of the diet tray that had been previously filled with 1 mL of artificial diet to which 50 μg/cm^2 of the test compound (dissolved in 50 μL of 90:10 acetone-water mixture) had been applied (to each of eight wells) and then allowed to dry. Trays were covered with a clear self-adhesive cover and held at 25° C., 14:10 light-dark for five to seven days. Percent mortality was recorded for the larvae in each well; activity in the eight wells was then averaged. The results are indicated in the table entitled “Table 5: Biological Results” (See Table Section).

Turning to `Cc1cccc(C)c1N1C(=O)CCS/C1=N\N=C\c1ccc(-c2ncn(-c3ccc(OC(F)(F)F)cc3)n2)cc1` [Compound 223C], the pest or weed control at 50 µg/cm2, 50 µg/cm2 in experiment [1] and in experiment [2] was 50 to 100% throughout.
For `CC(C)c1ccccc1N1CS/C1=N\N=C\c1ccc(-c2ncn(-c3ccc(OC(F)(F)F)cc3)n2)cc1` [Compound 240C], the pest or weed control at 50 µg/cm2, 50 µg/cm2 in experiment [1] and in experiment [2] was 50 to 100% each time.
On to `CC1CS/C(=N\N=C\c2ccc(-c3ncn(-c4ccc(OC(F)(F)F)cc4)n3)cc2)N(c2c(Cl)cccc2C(F)(F)F)C1` (stereo not shown) [Compound 215C], for which the pest or weed control at 50 µg/cm2, 50 µg/cm2 in experiment [1] and in experiment [2] was 50 to 100% in each case.
In the case of `CCS/C(=N\c1c(Cl)cccc1Cl)N/N=C/c1ccc(-c2ncn(-c3ccc(OC(F)(F)F)cc3)n2)cc1` [Compound 2C], the pest or weed control at 50 µg/cm2, 50 µg/cm2 in experiment [1] and in experiment [2] was 50 to 100% each time.
For the molecule `COc1cc(C)c(/N=C(/N/N=C/c2ccc(-c3ncn(-c4ccc(OC(F)(F)F)cc4)n3)cc2)SCOC(=O)C2CCCO2)c(C)c1` (stereo not shown) [Compound 44C], the pest or weed control at 50 µg/cm2, 50 µg/cm2 in experiment [1] and in experiment [2] was 50 to 100% each time.
For the molecule `CC1CS/C(=N\N=C\c2ccc(-c3ncn(-c4ccc(OC(F)(F)F)cc4)n3)cc2)N(c2ccccc2OC(F)(F)F)C1` (stereo not shown) [Compound 214C], the pest or weed control at 50 µg/cm2, 50 µg/cm2 in experiment [1] and in experiment [2] was 50 to 100% throughout.
Regarding `O=C1CS/C(=N\N=C\c2ccc(-c3ncn(-c4ccc(OC(F)(F)F)cc4)n3)cc2)N1c1c(Cl)cccc1Cl` [Compound 70C], the pest or weed control at 50 µg/cm2, 50 µg/cm2 in experiment [1] and in experiment [2] was 50 to 100% throughout.
`CCc1cccc(C)c1N1CS/C1=N\N=C\c1ccc(-c2ncn(-c3ccc(OC(F)(F)F)cc3)n2)cc1` [Compound 243C]: the pest or weed control at 50 µg/cm2, 50 µg/cm2 in experiment [1] and in experiment [2] was 50 to 100% in each case.
With `CN(C)c1cccc(N2C(=O)CS/C2=N\N=C\c2ccc(-c3ncn(-c4ccc(OC(F)(F)F)cc4)n3)cc2)c1` [Compound 97C], the pest or weed control at 50 µg/cm2, 50 µg/cm2 in experiment [1] and in experiment [2] was 50 to 100% in each case.
In the case of `COc1cc(C)c(-n2c(C)cs/c2=N\N=C\c2ccc(-c3ncn(-c4ccc(OC(F)(F)F)cc4)n3)cc2)c(C)c1` [Compound 172C], the pest or weed control at 50 µg/cm2, 50 µg/cm2 in experiment [1] and in experiment [2] was 50 to 100% throughout.
For the molecule `CC(C)c1ccc(F)cc1N1CS/C1=N\N=C\c1ccc(-c2ncn(-c3ccc(C(F)(C(F)(F)F)C(F)(F)C(F)(F)F)cc3)n2)cc1` (stereo not shown) [Compound 258C], the figures for the pest or weed control at 50 µg/cm2, 50 µg/cm2 in experiment [1] and in experiment [2] were 50 to 100% and 0 to 50%, respectively.
The corresponding values for `Cc1cccc(C)c1/N=C(/N/N=C/c1ccc(-c2ncn(-c3ccc(OC(F)(F)F)cc3)n2)cc1)SCC(=O)NCCCN(C)C(=O)OC(C)(C)C` [Compound 61C] are 50 to 100% and 50 to 100%.
For `CC(C)c1ccccc1N1CCS/C1=N\N=C\c1ccc(-c2ncn(-c3ccc(C(F)(F)F)cc3)n2)cc1` [Compound 134C], in that order: 50 to 100% and 50 to 100%.
The corresponding values for `O=C1CCS/C(=N\N=C\c2ccc(-c3ncn(-c4ccc(OC(F)(F)F)cc4)n3)cc2)N1c1c(Cl)cccc1C(F)(F)F` [Compound 228C] are 50 to 100% and 50 to 100%.
On to `Cc1cccc(C)c1/N=C(/N/N=C/c1ccc(-c2ncn(-c3ccc(OC(F)(F)F)cc3)n2)cc1)SCOC(=O)C(C)(C)C` [Compound 36C], for which the pest or weed control at 50 µg/cm2, 50 µg/cm2 in experiment [1] and in experiment [2] was 50 to 100% in each case.
Turning to `CC(F)(F)Oc1ccccc1N1C(=O)CCS/C1=N\N=C\c1ccc(-c2ncn(-c3ccc(OC(F)(F)F)cc3)n2)cc1` [Compound 229C], the pest or weed control at 50 µg/cm2, 50 µg/cm2 in experiment [1] and in experiment [2] was 50 to 100% each time.
As for `CC(C)c1ccc(F)cc1N1CS/C1=N\N=C\c1ccc(-c2ncn(-c3ccc(C(C)(F)F)cc3)n2)cc1` [Compound 259C], the pest or weed control at 50 µg/cm2, 50 µg/cm2 in experiment [1] and in experiment [2] was 50 to 100% throughout.
As for `CC1CS/C(=N\N=C\c2ccc(-c3ncn(-c4ccc(OC(F)(F)F)cc4)n3)cc2)N1c1c(Cl)cccc1C(F)(F)F` (stereo not shown) [Compound 160C], the pest or weed control at 50 µg/cm2, 50 µg/cm2 in experiment [1] and in experiment [2] was 50 to 100% in each case.
`CCc1cccc(C)c1N1CCS/C1=N\N=C\c1ccc(-c2ncn(-c3ccc(OC(F)(F)F)cc3)n2)cc1` [Compound 136C]: the pest or weed control at 50 µg/cm2, 50 µg/cm2 in experiment [1] and in experiment [2] was 50 to 100% in each case.
`Cc1ccccc1N1C(=O)CS/C1=N\N=C\c1ccc(-c2ncn(-c3ccc(OC(F)(F)F)cc3)n2)cc1` [Compound 113C]: the pest or weed control at 50 µg/cm2, 50 µg/cm2 in experiment [1] and in experiment [2] was 50 to 100% throughout.
As for `FC(F)(F)Oc1ccc(-n2cnc(-c3ccc(/C=N/N=C4\SCCCN4c4ccccc4OC(F)(F)F)cc3)n2)cc1` [Compound 199C], the pest or weed control at 50 µg/cm2, 50 µg/cm2 in experiment [1] and in experiment [2] was 50 to 100% in each case.
With `CC1CCS/C(=N\N=C\c2ccc(-c3ncn(-c4ccc(OC(F)(F)F)cc4)n3)cc2)N1c1ccccc1C(C)(C)C` (stereo not shown) [Compound 222C], the pest or weed control at 50 µg/cm2, 50 µg/cm2 in experiment [1] and in experiment [2] was 50 to 100% in each case.
With `FC(F)(F)Oc1ccc(-n2cnc(-c3ccc(/C=N/N=C4\SCCCN4c4c(Cl)cccc4Cl)cc3)n2)cc1` [Compound 187C], the pest or weed control at 50 µg/cm2, 50 µg/cm2 in experiment [1] and in experiment [2] was 50 to 100% throughout.
For the molecule `CC(C)c1ccccc1N1C(=O)CS/C1=N\N=C\c1ccc(-c2ncn(-c3ccc(C(F)(F)F)cc3)n2)cc1` [Compound 120C], the pest or weed control at 50 µg/cm2, 50 µg/cm2 in experiment [1] and in experiment [2] was 50 to 100% throughout.
With `Cc1cccc(C)c1N1C(=O)CS/C1=N\N=C\c1ccc(-c2ncn(-c3ccc(OC(F)(F)C(F)(F)F)cc3)n2)cc1` [Compound 100C], the pest or weed control at 50 µg/cm2, 50 µg/cm2 in experiment [1] and in experiment [2] was 50 to 100% in each case.
Regarding `Cc1cs/c(=N\N=C\c2ccc(-c3ncn(-c4ccc(OC(F)(F)F)cc4)n3)cc2)n1-c1ccccc1OC(F)(F)F` [Compound 170C], the pest or weed control at 50 µg/cm2, 50 µg/cm2 in experiment [1] and in experiment [2] was 50 to 100% throughout.
Take `Cc1cccnc1N1CCCS/C1=N\N=C\c1ccc(-c2ncn(-c3ccc(OC(F)(F)F)cc3)n2)cc1` [Compound 198C]: the pest or weed control at 50 µg/cm2, 50 µg/cm2 in experiment [1] and in experiment [2] was 50 to 100% throughout.
In the case of `CC(C)(C)c1ccccc1N1CCCS/C1=N\N=C\c1ccc(-c2ncn(-c3ccc(OC(F)(F)F)cc3)n2)cc1` [Compound 210C], the pest or weed control at 50 µg/cm2, 50 µg/cm2 in experiment [1] and in experiment [2] was 50 to 100% in each case.
Take `COc1cccc(N2CCCS/C2=N\N=C\c2ccc(-c3ncn(-c4ccc(OC(F)(F)F)cc4)n3)cc2)c1` [Compound 206C]: the pest or weed control at 50 µg/cm2, 50 µg/cm2 in experiment [1] and in experiment [2] was 50 to 100% each time.
With `O=C1CCS/C(=N\N=C\c2ccc(-c3ncn(-c4ccc(OC(F)(F)F)cc4)n3)cc2)N1c1ccccc1OC(F)F` [Compound 233C], the pest or weed control at 50 µg/cm2, 50 µg/cm2 in experiment [1] and in experiment [2] was 50 to 100% in each case.
Consider `CC1CS/C(=N\N=C\c2ccc(-c3ncn(-c4ccc(OC(F)(F)F)cc4)n3)cc2)N1c1c(F)cccc1F` (stereo not shown) [Compound 159C], for which the pest or weed control at 50 µg/cm2, 50 µg/cm2 in experiment [1] and in experiment [2] was 50 to 100% each time.
For `CC1CS/C(=N\N=C\c2ccc(-c3ncn(-c4ccc(OC(F)(F)F)cc4)n3)cc2)N1c1ccccc1OC(F)(F)F` (stereo not shown) [Compound 168C], the pest or weed control at 50 µg/cm2, 50 µg/cm2 in experiment [1] and in experiment [2] was 50 to 100% in each case.
Take `Cc1cccc(C)c1N1C(=O)CS/C1=N\N=C\c1ccc(-c2ccn(-c3ccc(OC(F)(F)F)cc3)n2)cc1` [Compound 103C]: the pest or weed control at 50 µg/cm2, 50 µg/cm2 in experiment [1] and in experiment [2] was 50 to 100% throughout.
Consider `CC1CSC(=NN=Cc2ccc(-c3ncn(-c4ccc(OC(F)(F)F)cc4)n3)cc2)N(c2ccccc2C(C)C)C1` (stereo in doubt) [Compound 178C, (Z)-3-(2-isopropylphenyl)-5-methyl-2-((E)-(4-(1-(4-(trifluoromethoxy)phenyl)-1H-1,2,4-triazol-3-yl)benzylidene)hydrazono)-1,3-thiazinane], for which the pest or weed control at 50 µg/cm2, 50 µg/cm2 in experiment [1] and in experiment [2] was 50 to 100% throughout.
On to `CC1S/C(=N\N=C\c2ccc(-c3ncn(-c4ccc(OC(F)(F)F)cc4)n3)cc2)N(c2c(F)cccc2F)C1=O` (stereo not shown) [Compound 131C], for which the pest or weed control at 50 µg/cm2, 50 µg/cm2 in experiment [1] and in experiment [2] was 50 to 100% throughout.

Values taken from US9018388B2, “Pesticidal compositions and processes related thereto” (Dow AgroSciences LLC, priority 2012, dated 2015).
